Test results as given in patent US20260234173A1, “STRUCTURED MOLECULAR VECTORS FOR ANTI-INFLAMMATORY COMPOUNDS AND USES THEREOF” (Universite Claude Bernard Lyon 1, priority 2019, published 2026).
Values belong to the molecule of their own block, whether it stands above or below them.

Experiments:
[1] = tested on: NR8383 cells; conditions: LPS 100 ng/mL; compound 10, 100, 500, 1,000 nM within <2 min after LPS; 5 hours
Method: NR8383 cells were seeded at 53,000 cells/cm^2 in T75 flasks, the medium consisted in Ham's F12K medium completed with 1% pen/strep, and 15% fetal bovine serum. When they reached confluence, they were treated with LPS (Sigma, ref 055: B55) at the concentration of 100 ng/mL, and, within less than 2 min after, with one of the following condition: DECA-EA-Pn at 10, 100, 500 or 1,000 nM, or EPA-EA-Pn at 10, 100, 500 or 1,000 ng/mL. Cells were harvested 5 hours later, and the level of IL-6 mRNA was measured by RT-qPCR as in B.2.1.4, with primers listed in table 1.

[2] = tested on: hippocampal LTP in rats subjected to Pilo-SE; assay: Hippocampal LTP in slices from Pilo-SE rats treated in vivo (i.p. or per os); set-up: species or system rat
Method: (§1) In this experiment we used male Sprague-Dawley rats (ENVIGO, Netherlands). Pups were received at 14 day-old (postnatal day 14 (P14)) with their foster mother, and were maintained in groups of 10 in plastic cages (405 mm×255 mm×197 mm) with free access to food and water. All animal procedures are in accordance with the guidelines of the Animal Care and Use Committee of the University Claude Bernard Lyon 1.
(§2) All injected solutions were prepared in sterile saline (0.9% w/v). At weaning (postnatal day 20 (P20)), Sprague-Dawley male rat pups were first injected i.p. with lithium chloride (127 mg/Kg; Sigma-Aldrich), to decrease the dose of pilocarpine needed to trigger Status Epilepticus (SE). Scopolamine methylnitrate (1 mg/Kg; Sigma-Aldrich) was injected s.c. 18 h later, to alleviate peripheral cholinergic adverse side effects. Pilocarpine hydrochloride (25 mg/Kg; Sigma-Aldrich) was injected i.p. 30 min later, to induce SE. […] The rats were placed on a heated pad, under continuous observation, until they recovered from sedation. Following recovery, the rats were returned to the nursing mother until P23. Control rats only received saline injections. All rats were then housed in groups of 10 and weighed daily, during the 5 following days, to control for food intake, and then twice weekly until the end of experiment (three weeks post SE).
(§3) At P28-38, Sprague-Dawley rats were anesthetized with isoflurane, the forebrain was removed and placed in ice cold standard artificial cerebrospinal fluid (ACSF), consisting of (in mM): 124 NaCl, 5 KCl, 1.25 Na2HPO4, 2 MgSO4, 2 CaCl2), 26 NaHCO3, supplemented with 10 D-glucose, and bubbled with 95% O2 and 5% CO2. Hippocampal transverse slices were cut into 350 μm thick sections, using a vibratome (Leica VT1000S), and incubated in ACSF at room temperature for at least 1 h, before the transfer to the recording chamber. The ACSF used for perfusion was supplemented with picrotoxin (100 μM; Sigma-Aldrich), to block GABA-A receptors and therefore to facilitate the induction of NMDA receptors-dependent Long-Term Potentiation (LTP). CA1 pyramidal cells were visualized with a Zeiss Axioskop 2, equipped with a X40 objective, using infrared video microscopy and differential interference contrast optics. Whole-cell recordings from pyramidal neurons in the CA1 layer were obtained with patch electrodes, which were filled with a solution containing (in mM): 120 potassium gluconate, 20 KCl, 0.2 EGTA, 2 MgCl2, 10 HEPES, 4 Na2ATP, 0.3 Tris-GTP and 14 mM phosphocreatine (pH 7.3, adjusted with KOH). Drugs were applied in the bath of the hippocampal slices. Electrode resistances ranged from 3-5 MΩ. Series resistance was continually monitored, and experiments were discarded if it changed by >20%.
Capillary glass pipettes filled with ACSF and connected to an Iso-Flex stimulus isolation unit (A.M.P.I.) were placed in stratum radiatum, to evoke excitatory postsynaptic potentials (EPSPs) in CA1 pyramidal neurons. Cells were held at −70 mV to record EPSPs, and the stimulation strength was set to evoke EPSPs between 5-8 mV. LTP was induced by the theta burst pairing (TBP) protocol, which consisted of EPSPs paired with single back-propagating action potentials (b-APs), timed so that the b-AP (~15 ms delay) occurred at the peak of the EPSPs, as measured in the soma. A single burst contained five pairs delivered at 100 Hz and ten bursts were delivered at 5 Hz per sweep. Three sweeps were delivered at 10 s intervals for a total of 30 bursts (150 b-AP-EPSP pairs). The b-APs were elicited by direct somatic current injection (1 ms, 1-2 nA). This induction protocol was always applied within 20 min of achieving whole-cell configuration, to avoid “wash-out” of LTP.

[3] = Metabolic fate of SSL-X1 in the digestive tract of rats after per os administration; type: in vivo; conditions: 227 μg lipid phosphorus per os, sacrificed 5, 8 and 36 hours after administration
[4] = tested on: SE-induced neuroinflammation (hippocampus and ventral limbic region); assay: Neuroinflammatory response induced by status epilepticus in rats, per os SSL-X1; type: in vivo, rat; conditions: 100 mg/Kg per os 1 h after onset of SE; hippocampus and ventral limbic region 24 h after SE; 21-day-old rats
Source text: In these experiments, 21-day-old Sprague Dawley rats (ENVIGO, The NETHERLAND) were subjected to pilocarpine-induced status epilepticus (SE) as described below in details (§ B.3). Three groups of rats were constituted: (i) CTRL-NaCl, i.e. control rats that just received NaCl each time a treatment was given in the other groups of rats; (ii) SE-NaCl, i.e. rats that were subjected to SE and that received NaCl per os instead of SSL-X1; (iii) SE-SSL-X1, i.e. rats that were subjected to SE and that were administered with SSL-X1 vector (100 mg/Kg) per os 1 h after the onset of SE. The vectors were dissolved in 100 μL of NaCl. Due to their hydrophobic nature, the preparation was emulsified until complete dissolution of the lipid vector. Twenty-four hours later, rats were sacrificed using a lethal injection of pentobarbital (250 mg/Kg; i.p.) and brain tissues, i.e. the hippocampus (HI) and the ventral limbic region (VLR, which includes the amygdala, the piriform and the insular agranular cortices) were collected and processed as mentioned above (§ B.2.2). Analysis of the expression level of the key markers of neuroinflammation was performed by RT-qPCR as described above using the primer pairs shown in Table 1. […]

[5] = Hydrosolubility compared with synaptamide; type: physicochemical
[6] = tested on: CA1 pyramidal neurons in hippocampal slices from rats subjected to Pilo-SE; assay: Hippocampal LTP in slices from Pilo-SE rats, compound perfused in the bath (ex vivo); type: cell-based, rat; conditions: slices 1-2 weeks post Pilo-SE
Method: as §1, §2, §3
Capillary glass pipettes filled with ACSF and connected to an Iso-Flex stimulus isolation unit (A.M.P.I.) were placed in stratum radiatum, to evoke excitatory postsynaptic potentials (EPSPs) in CA1 pyramidal neurons. Cells were held at −70 mV to record EPSPs, and the stimulation strength was set to evoke EPSPs between 5-8 mV. LTP was induced by the theta burst pairing (TBP) protocol, which consisted of EPSPs paired with single back-propagating action potentials (b-APs), timed so that the b-AP (~15 ms delay) occurred at the peak of the EPSPs, as measured in the soma. A single burst contained five pairs delivered at 100 Hz and ten bursts were delivered at 5 Hz per sweep. Three sweeps were delivered at 10 s intervals for a total of 30 bursts (150 b-AP-EPSP pairs). […]

[7] = tested on: Pilo-SE-induced inflammation in the hippocampus; assay: Resolution of inflammation in hippocampus following pilocarpine-induced status epilepticus (Pilo-SE); type: in vivo, rat; conditions: 2 mg/kg i.p. after 2 h of SE; hippocampus 9 h post-SE; 42-day-old rats
Method: Male Sprague-Dawley rats (Envigo, The Netherlands) were subjected to Pilo-SE at 42 days of age (185 g). SE was triggered by pilocarpine hydrochlorate (350 mg/kg, i.p.), 30 min after the administration of scopolamine methylnitrate (1 mg/kg, s.c.), used to reduce peripheral side effects of pilocarpine. After 2 h of continuous SE, rats were administered with diazepam (10 mg/kg, i.p.) to stop SE, and then immediately treated with SYN (2 mg/kg, i.p.), SYN-Pn (2 mg/kg, i.p.) in 300 μL of NaCl. Non-treated rats subjected to Pilo-SE were injected with 300 μL of NaCl (i.p.) instead of SYN or SYN-Pn. All rats received a second administration of diazepam (5 mg/kg, s.c.), 1 h after the first one, and sacrificed 9 h post-SE. The brains were collected, the hippocampus microdissected on ice, the RNA extracted and RT-qPCR performed as described above using the primer pairs shown in Table 1. The time at which rats were sacrificed was chosen based on our preliminary experiments that allowed us to determine that the peak of brain inflammation was observed 7-12 hours after the onset of SE.

[8] = tested on: LPS-induced neuroinflammation (hippocampus and neocortex); assay: LPS-induced neuroinflammation in vivo in rats (RT-qPCR, Neuroinflammation Index); set-up: species or system rat; conditions: 6 h post-LPS
[9] = tested on: epileptic rats (post Pilo-SE); assay: Morris water maze (MWM) spatial learning in epileptic rats; type: in vivo, rat; conditions: epileptic rats injected during the first week post-SE, tested 5 weeks post-SE, versus saline
Method: All injected solutions were prepared in sterile saline (0.9% w/v). At weaning (postnatal day 20 (P20)), Sprague-Dawley male rat pups were first injected i.p. with lithium chloride (127 mg/Kg; Sigma-Aldrich), to decrease the dose of pilocarpine needed to trigger Status Epilepticus (SE). Scopolamine methylnitrate (1 mg/Kg; Sigma-Aldrich) was injected s.c. 18 h later, to alleviate peripheral cholinergic adverse side effects. Pilocarpine hydrochloride (25 mg/Kg; Sigma-Aldrich) was injected i.p. 30 min later, to induce SE. After 30 min of continuous behavioral SE, diazepam (Valium®, Roche) was injected i.p. at 10 mg/Kg, to promote survival and initiate cessation of behavioral seizures, that completely stopped after a second s.c. injection of diazepam, given 90 min later at the dose of 5 mg/Kg. The rats were placed on a heated pad, under continuous observation, until they recovered from sedation. Following recovery, the rats were returned to the nursing mother until P23. Control rats only received saline injections. […]
Spatial learning ability was measured at 5 weeks post-SE by the Morris water maze (MWM). […]
The statistical analyses were performed using SigmaPlot software version 12. […] For MWM test, data were analyzed by two-way repeated measures ANOVA followed by Fisher LSD post hoc tests to compare differences between groups at several time points.

[10] = 5 mg/kg i.p., 1 h after cessation of SE then daily
[11] = 2 mg/kg i.p., 1 h after cessation of SE then daily

Molecule: CCCCCCCCCC(=O)O.NCCO.O=[PH](O)O [DECA-EA-Pn, decanoic acid ethanolamine phosphonate]
induction of IL-6 mRNA levels [1]: significantly reduced
LTP magnitude (EPSP amplitude, % of baseline) [2, 10]: 130.3±7%

Molecule: CC/C=C\C/C=C\C/C=C\C/C=C\C/C=C\C/C=C\CCC(=O)O [DHA, docosahexaenoic acid, reference compound]
LTP magnitude (EPSP amplitude, % of baseline) ([2]; per os, dose equivalent to 100 mg/kg of Synaptamide phosphonate): 129.5±10.2%

Molecule: CCC=CCC=CCC=CCC=CCC=CCC=CCCC(=O)NC(COP(=O)(O)CCN)C(O)C=CCCCCCCCCCCCCC (stereo not shown) [SSL-X1]
distribution of SSL-X1 along the intestinal tract [3]: able to reach the colon
induction of MCP1, IL6 and COX-2 transcripts after SE [4]: partially prevented

Molecule: CCC=CCC=CCC=CCC=CCC=CCC=CCCC(=O)NCCP(=O)(O)OCC(N)C(O)C=CCCCCCCCCCCCCC (stereo not shown) [SSLX2]
LTP magnitude (EPSP amplitude, % of baseline) ([2]; per os, dose equivalent to 10 mg/kg of Synaptamide phosphonate): 135.6±9.9%
LTP magnitude (EPSP amplitude, % of baseline) ([2]; per os, dose equivalent to 30 mg/kg of Synaptamide phosphonate): 172.9±6.5%

hydrosolubility relative to synaptamide [5]: more hydrosoluble than synaptamide
Molecule: CC/C=C\C/C=C\C/C=C\C/C=C\C/C=C\C/C=C\CCC(=O)NCCOP(=O)(O)O [synaptamide phosphate]
LTP magnitude (EPSP amplitude, % of baseline) ([6]; bath application 100 nM): 144.5±9.39%
LTP magnitude (EPSP amplitude, % of baseline) [2, 11]: 168.9±7.1%
LTP magnitude (EPSP amplitude, % of baseline) [2, 10]: 162.3±10.8%

Molecule: CC/C=C\C/C=C\C/C=C\C/C=C\C/C=C\C/C=C\CCC(=O)NCCO [synaptamide, N-Docosahexaenoylethanolamine, reference compound]
induction of IL1β mRNA in response to Pilo-SE [7]: reduced
LPS-mediated induction of transcripts encoding neuroinflammatory markers ([8]; 2 mg/Kg synaptamide equivalent i.p. one minute after LPS 1 mg/Kg, 21-day-old rats): partially prevent
reduction of the Neuroinflammatory Index measured both in the hippocampus and the neocortex ([8]; 2 mg/Kg synaptamide equivalent i.p. one minute after LPS): ~ 50%
LTP magnitude (EPSP amplitude, % of baseline) ([6]; bath application 100 nM): 166.8±12.2%
LTP magnitude (EPSP amplitude, % of baseline) ([6]; bath application 400 nM): 164.2±20.5%
LTP magnitude (EPSP amplitude, % of baseline) [2, 11]: 189.7±11.4%
LTP magnitude (EPSP amplitude, % of baseline) [2, 10]: 151.54±7.15%
LTP magnitude (EPSP amplitude, % of baseline) ([2]; 10 mg/kg i.p., 1 h after cessation of SE then daily): 195.2±8%
spatial learning in MWM (latency to find the platform) [9]: significantly increased spatial learning acquisition

Molecule: eicosapentaenoic acid ethanolamine phosphonate [EPA-EA-Pn]
induction of IL-6 mRNA levels [1]: significantly reduced
LTP magnitude (EPSP amplitude, % of baseline) [2, 10]: 154.4±12.1%
